# Assays:
# [1] = tested on: RAW 264.7 macrophage cells; conditions: RAW 264.7 cells, in the presence of 1.0 μM oligomycin; FCCP 0.125-2 μM tested
# Description: Cultured cells are first seeded into the wells of an appropriate microplate (also referred to herein as a multi-well plate) for the instrument being used (as described above). • 2. After adherence to the microplate, cells are either allowed to grow as desired, or may be assayed for metabolic potential immediately. • 3. At time of assay, cell culture media is exchanged for a volume of assay media appropriate for the microplate being used to create a cell sample including a plurality of cells disposed in a media. The microplate is allowed to incubate for 1 h at 37° C. in a non-CO2 incubator. • 4. […] To titrate optimal FCCP concentration in an XFe96 instrument, RAW 264.7 macrophages are exposed to varying concentrations of the drug, and the resulting OCR is measured. In this example, cells were first treated with 1.0 μM oligomycin (final concentration in 200 μl assay media), OCR was measured, and then one of the following concentrations of FCCP was added: 0.125, 0.25, 0.5, 1.0, or 2.0 μM (final concentration in 222 μl assay media). […] The metabolic potential of the cell sample may be determined by (i) providing the initial oxygen consumption rate, the initial extracellular acidification rate, the subsequent oxygen consumption rate, and the subsequent extracellular acidification rate to a software program, and (ii) using the software program to calculate the metabolic potential. […]
# [2] = tested on: C2C12 myoblast cells; test: Metabolic potential (OCR/ECAR, XFp) after co-injection of FCCP and oligomycin, UK5099 treatment; format: cell-based; conditions: 2 μM UK5099, 1 hour; stress 0.5 μM FCCP + 1.0 μM oligomycin
# Description: C2C12 myoblast cells were seeded into XFp microplates at a density of 1.2×10^4 cells/well.
# Treated cells received media containing 2 μM UK5099 (a potent inhibitor of the mitochondrial pyruvate carrier), control cells received assay media.
# (§1) Metabolic potential was measured using an XFp Extracellular Flux Analyzer (Seahorse Bioscience) and XFp assay cartridges (Seahorse Bioscience). Briefly, microplates containing UK5099-treated and control cells were placed in the XFp Extracellular Flux Analyzer, and initial OCR and ECAR measurements are taken.
# [3] = tested on: C2C12 myotubes; test: Metabolic potential (OCR/ECAR, XFp) after co-injection of FCCP and oligomycin, etomoxir treatment; format: cell-based; conditions: 40 μM etomoxir, 1 hour; stress 0.5 μM FCCP + 1.0 μM oligomycin
# Description: C2C12 myoblast cells were seeded into XFp microplates at a density of 1.2×10^4 cells/well. […] During differentiation, medium was replaced with fresh differentiation medium every other day. […] Metabolic potential was measured using an XFp Extracellular Flux Analyzer (Seahorse Bioscience) and XFp assay cartridges (Seahorse Bioscience). Briefly, microplates containing etomoxir-treated and control myotubes were placed in the XFp Extracellular Flux Analyzer, and initial OCR and ECAR measurements are taken.
# [4] = tested on: RAW 264.7 macrophage cells; test: Metabolic potential (OCR/ECAR, XFp) after co-injection of FCCP and oligomycin, LPS treatment; format: cell-based; conditions: 1 μg/ml LPS, 1 hour; stress 0.5 μM FCCP + 1.0 μM oligomycin
# Description: Cells treated with LPS received media containing 1 μg/ml LPS, control cells received assay media.
# as §1, with “LPS-treated” for “UK5099-treated”
molecule,measurement,setting,value
"N#CC(C#N)=NNc1ccc(OC(F)(F)F)cc1 [FCCP, carbonyl cyanide p-trifluoromethoxyphenylhydrazone]",FCCP concentration at which maximal OCR is achieved,[1],0.5 µM
N#C/C(=C\c1cn(-c2ccccc2)c2ccccc12)C(=O)O [UK5099],aerobic metabolic potential relative to control cells,[2],decreased
same,glycolytic metabolic potential relative to control cells,[2],decreased
CCOC(=O)[C@@]1(CCCCCCOc2ccc(Cl)cc2)CO1 [etomoxir],aerobic metabolic potential compared to control myotubes,[3],increased
same,glycolytic metabolic potential compared to control myotubes,[3],slightly decreased
lipopolysaccharide [LPS],aerobic metabolic potential relative to control cells,[4],increased
same,glycolytic potential relative to control cells,[4],roughly unchanged

# — patent US11940442B2, “Method and system for determining integrated metabolic baseline and potential of living cells” (AGILENT TECHNOLOGIES, INC., priority 2015, dated 2024)
